Experiments:
[1] = tested on: caspase-3, caspase-6, caspase-7, caspase-8, caspase-9; conditions: Kato et al., 2005; cited from earlier work
[2] = tested on: mature downstream caspases (17-22 kDa) in 293 extracts; test: Intrinsic apoptosis assay in 293 extracts with AB06, KMB01 labeling of mature downstream caspases; type: biochemical; conditions: AB06 added at the same time as cytochrome c/dATP
From the text: FIGS. 6 A-E illustrate that full-length active caspase-7 has unique inhibitor specificity and is processed to mature forms by downstream executioner caspases. (A) The caspase-3 specific inhibitor causes accumulation of a catalytically active full-length form of caspase-7. Cytosolic extracts from 293 cells were activated with cytochrome c/dATP for the indicated times followed by labeling with KMB01 (left panel) and western blotting with a caspase-7 specific antibody (right panel) as in FIG. 5A. […] (B) The exact same experiment as (A) except extracts from MCF-7 cells were used in place of 293 extracts. (**) indicates forms of caspase-7 that are likely a result of the alternative transcription start site at methionine-45 (C) Quantification of the relative activity of FL-C7 in uninhibited 293 extracts (from FIG. 5A), AB06 treated 293 extracts (from (A)) and uninhibited MCF-7 extracts (from (B)) (D) Inhibitor specificity of full-length and processed forms of caspase-7. Extracts (293) were activated for 5 min with cytochrome c/dATP and then incubated with NP-capped AOMK inhibitors containing the indicated primary amino acid sequences for 5 minutes before KMB01 was added and allowed to label residual caspase active sites for 30 minutes. Samples were analyzed by SDS-PAGE followed by biotin blotting using strepavidin-HRP (left panel) or western blotting for caspase-7 (right panel). […]

[3] = target: T1, caspase-9 in 293 extracts (Homo sapiens, UniProt P55211); test: Intrinsic apoptosis assay in 293 extracts, KMB01 labeling of caspase-9; type: biochemical
T1 construct: endogenous in cells
T1 sequence (P55211 1-315 limits assumed): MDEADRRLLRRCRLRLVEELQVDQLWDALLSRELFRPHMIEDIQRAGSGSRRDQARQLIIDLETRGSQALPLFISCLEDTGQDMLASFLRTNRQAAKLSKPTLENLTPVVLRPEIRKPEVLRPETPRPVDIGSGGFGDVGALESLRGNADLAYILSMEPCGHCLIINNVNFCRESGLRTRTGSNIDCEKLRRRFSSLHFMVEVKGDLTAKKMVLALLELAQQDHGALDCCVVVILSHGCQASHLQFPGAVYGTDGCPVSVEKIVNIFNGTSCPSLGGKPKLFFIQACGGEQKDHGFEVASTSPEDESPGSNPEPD
T1 sequence (P55211 331-416 limits assumed): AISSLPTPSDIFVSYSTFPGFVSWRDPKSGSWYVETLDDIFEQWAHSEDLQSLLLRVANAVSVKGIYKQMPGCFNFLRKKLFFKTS
T1 sequence (O14727 whole entry partner): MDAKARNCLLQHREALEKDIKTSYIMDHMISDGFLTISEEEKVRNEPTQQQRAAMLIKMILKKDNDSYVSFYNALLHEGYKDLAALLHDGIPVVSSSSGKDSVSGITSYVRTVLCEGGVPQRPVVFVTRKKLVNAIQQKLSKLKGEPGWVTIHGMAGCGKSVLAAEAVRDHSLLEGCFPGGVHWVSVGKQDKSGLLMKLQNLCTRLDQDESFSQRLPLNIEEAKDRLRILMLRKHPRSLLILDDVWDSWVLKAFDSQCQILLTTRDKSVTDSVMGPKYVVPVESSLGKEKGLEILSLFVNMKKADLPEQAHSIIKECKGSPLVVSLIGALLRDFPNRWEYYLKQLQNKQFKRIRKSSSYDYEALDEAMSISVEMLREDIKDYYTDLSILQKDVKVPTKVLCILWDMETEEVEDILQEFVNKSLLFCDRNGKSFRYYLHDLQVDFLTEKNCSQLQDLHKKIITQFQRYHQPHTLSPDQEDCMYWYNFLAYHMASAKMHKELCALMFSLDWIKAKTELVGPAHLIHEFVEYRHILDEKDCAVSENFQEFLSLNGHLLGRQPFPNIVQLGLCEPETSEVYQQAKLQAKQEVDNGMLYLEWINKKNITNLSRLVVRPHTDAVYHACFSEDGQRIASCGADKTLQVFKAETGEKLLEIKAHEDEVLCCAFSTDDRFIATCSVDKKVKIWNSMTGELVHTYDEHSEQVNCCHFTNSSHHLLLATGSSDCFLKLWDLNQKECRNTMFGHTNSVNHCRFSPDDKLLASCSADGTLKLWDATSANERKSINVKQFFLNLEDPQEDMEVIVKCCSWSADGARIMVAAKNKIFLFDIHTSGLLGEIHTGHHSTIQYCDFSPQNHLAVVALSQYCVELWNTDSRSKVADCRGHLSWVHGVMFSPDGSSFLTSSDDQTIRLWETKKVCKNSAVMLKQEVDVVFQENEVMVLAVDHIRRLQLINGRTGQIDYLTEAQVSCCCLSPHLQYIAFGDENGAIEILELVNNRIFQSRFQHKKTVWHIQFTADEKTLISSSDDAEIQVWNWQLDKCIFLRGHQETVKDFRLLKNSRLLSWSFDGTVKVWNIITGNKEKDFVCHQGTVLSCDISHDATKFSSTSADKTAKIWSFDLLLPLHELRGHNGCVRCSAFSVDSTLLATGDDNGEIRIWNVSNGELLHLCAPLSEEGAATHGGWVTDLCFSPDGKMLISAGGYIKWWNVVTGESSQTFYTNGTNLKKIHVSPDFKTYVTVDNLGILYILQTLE
T1 sequence (P99999 2-105 partner limits assumed): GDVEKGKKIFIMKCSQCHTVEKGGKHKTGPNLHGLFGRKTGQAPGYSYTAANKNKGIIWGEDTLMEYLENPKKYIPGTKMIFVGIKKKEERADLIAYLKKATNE
From the text: To further confirm our assignment of the labeled species we treated samples at various activation times with purified recombinant Bir3 domain of XIAP. This polypeptide specifically binds to and inhibits caspase-9 but not caspase-3 or 7. […] We cannot rule out the possibility that p33 caspase-9 is the result of cleavage by some other protease or itself after it has already been labeled by KMB01 or inhibited by Bir3.
Profiling of caspase activity in 293 extracts that had been treated with AB06 at the same time as cytochrome c/dATP confirmed the selectivity of our inhibitor. […]
To confirm that our inhibitor AB06 was not reducing caspase 9 activity resulting in slow processing of caspase-7 and accumulation of a partially processed intermediate we treated extracts with a range of AB06 concentrations and monitored caspase-9 inhibition at various time points after cytochrome c/dATP addition. […]
Hypotonic 293 or MCF-7 extracts (4.7 μg/μl total protein concentration; 73 μg of total protein per time point) were activated by addition of cytochrome c (100 uM final) and dATP (1 mM final) for a range of times from 0-240 minutes as indicated. […] A portion (13.5 μg total protein) from each time point was analyzed by SDS-PAGE using 10-20% gradient gels followed by blotting for biotin as described above. […]

Bio-EVD-AOMK [KMB01, reference compound]
labeling of caspases by probe [1]: robust labeling of caspase-9 as well as caspase-3, caspase-7 and caspase-8

Cc1cccc(C)c1C(=O)OCC(=O)[C@H](CC(=O)O)NC(=O)[C@@H](NC(=O)[C@H](Cc1ccncc1)NC(=O)[C@H](CC(=O)O)NC(=O)Cc1ccc(O)c([N+](=O)[O-])c1)C(C)C [AB06, Np-D-3-V-D-DMBA]
KMB01 labeling of mature downstream caspases [2]: completely blocked | KMB01 labeling of processed forms of caspase-9 and precursor forms of caspase-7 ([3]; AB06 added at the same time as cytochrome c/dATP): unaltered | cross reactivity with caspase-9 ([3]; range of AB06 concentrations, as high as 10 μM for up to 30 minutes): lack of cross reactivity

Source: patent publication US20100068150A1, “Selective Caspase Inhibitors” (The Board of Trustees of the Leland Stanford Junior …, priority 2006, published 2010)
